Laboratory results: patent US20210322393A1, “METHODS OF TREATING COGNITIVE IMPAIRMENT ASSOCIATED WITH NEURODEGENERATIVE DISEASE” (Aptinyx Inc., priority 2019, published 2021)

How the values were obtained:
Assay type in all cases: in vivo
[1] = tested on: MPTP non-human primate model of Parkinson's disease cognitive impairment; assay: Chronic low dose MPTP non-human primate model of Parkinson's disease cognitive impairment
Tolerability in rat = assay: Tolerability in rat
[2] = tested on: rodent cognitive models (Morris water maze); assay: Morris water maze rodent cognitive model
Tolerability in dog = assay: Tolerability in dog
[3] = Pharmacokinetic profile in dog
[4] = tested on: rodent cognitive models (novel object recognition); assay: Novel object recognition rodent cognitive model
[5] = Pharmacokinetic profile in rat

COc1ccc(CN2C[C@@]3(CCNC(=O)C3)C2=O)cc1 [The Compound, (S) 2-(4-methoxybenzyl)-2,7-diazaspiro[3.5]nonane-1,6-dione]
onset, size and duration of effect ([1]; MPTP non-human primate study): rapid, robust, and long lasting effect
effect on MPTP-induced cognitive deficits (attention, working memory, executive function) ([1]; primate versions of Cambridge Neuropsychological Test Automated Battery assessments): reversed MPTP-induced deficits in several cognitive domains
tolerability (Tolerability in rat): well tolerated
efficacy in Morris water maze [2]: robust efficacy
tolerability (Tolerability in dog): well tolerated
pharmacokinetic profile [3]: favorable pharmacokinetic profile
efficacy in novel object recognition [4]: robust efficacy
pharmacokinetic profile [5]: favorable pharmacokinetic profile
